Literature values, collected in patent US12048769B2, “Methods for administering weight loss medications” (priority 2006, dated 2024).
Each block holds one compound with its values, some of them ahead of it.

Columns and labels:
[1] = in vivo
[2] = in vivo; remark: listed apart in the source
[3] = system: patients presenting primary obesity; details: comparable to marketed weight loss medications
[4] = system: carbonic anhydrase

SMILES: Cc1cc2c(s1)Nc1ccccc1N=C2N1CCN(C)CC1 [Olanzapine, 2-methyl-4-(4-methyl-1-piperazinyl)-10H-thieno[2,3-b][1,5]benzodiazepine]
effect of food on bioavailability [1]: not affected by food
first pass metabolism [1]: extensive first pass metabolism
kinetics [1]: linear kinetics
time to steady state plasma concentrations [1]: about a week

elimination half-life (after long-term use, healthy adults): 16 days
SMILES: NCCC(Oc1ccc(C(F)(F)F)cc1)c1ccccc1 (stereo not drawn) [norfluoxetine]

bioavailability (in vivo): approximately 72%
time to complete excretion (in vivo): several weeks
plasma protein binding (mostly albumin): highly bound
elimination half-life in liver disease (those with liver disease): prolonged
physiological half life [2]: about 24 hours
SMILES: CNCCC(Oc1ccc(C(F)(F)F)cc1)c1ccccc1 (stereo not drawn) [Fluoxetine, N-methyl-3-phenyl-3-[4-(trifluoromethyl)phenoxy]-propan-1-amine]

inhibitory effect on carbonic anhydrase [4]: weak inhibitory effect
SMILES: NS(=O)(=O)Cc1noc2ccccc12 [Zonisamide]
weight loss [3]: significant weight loss
